Measurements published in patent publication US20250011881A1, “MYC-HSF1 DUAL AMPLIFICATION AS A BIOMARKER FOR CANCER TREATMENT” (The Trustees of Indiana University, priority 2023, published 2025).
Several values for one entry are separate records, joined by “and”; a condition that tells them apart may be missing. Identical values can stand only once. Counter-ions that a name gives are not always drawn.

Tests used:
[1] = system: MYC and HSF1 protein in OVCAR8 cells; test: Immunoblot of MYC and HSF1 after entinostat; assay type: cell-based; conditions: OVCAR8, 24 hours
Protocol: FIG. 6C and FIG. 6D are immunoblots of OVCAR8 cells treated with entinostat at the indicated doses for 24 hours. Total protein from the cells was subjected to immunoblotting with the indicated antibodies.
Immunoblotting and co-immunoprecipitation was performed as described above. Antibodies for immunoblotting and immunoprecipitation included MYC (CST), HSF1 (CST), GAPDH (CST). […] Through the innovative method of screening potential therapeutics against cells having dual amplification of MYC and HSF1, Applicant was able to identify potential therapeutic targets, HDAC inhibitors, and therapeutics having increased efficacy against these cancer cells.

[2] = system: ovarian cancer cells with (OVCAR8, OVCAR4) or without (OVSAHO, CAOV3) MYC-HSF1 amplification; test: Epigenetic inhibitor drug screen, cell viability (Cell Titer Blue); assay type: cell-based; conditions: 10 uM, 48 hrs, average relative cell viability (vs 1% DMSO) of non-amplified cells (OVSAHO, CAOV3) minus that of MYC-HSF1 amplified cells (OVCAR8, OVCAR4), positive = greater response in amplified cells
[3] = system: HSF1 and MYC target genes in OVCAR8; test: RT-qPCR of HSF1 and MYC target genes after entinostat; assay type: cell-based; conditions: OVCAR8, 24 hrs
Protocol: FIG. 6B is a bar graph depicting mRNA relative fold change in OVCAR8 cells treated with entinostat at the indicated doses for 24 hours. Total RNA from the cells was subjected to RT-qPCR or the indicated transcripts.
Results of this screen indicated 45 of the top 54 hits were compounds that targeted histone deacetylases (HDACs). (Table 1). To test the effect of HDAC inhibitors on cell lines having dual copy number gain in both MYC and HSF1, we treated OVCAR8 (positive for MYC-HSF1 amplification) for 24 hrs with an HDAC inhibitor, etinostat. Total RNA from treated cells was subjected to RTqPCR. To conduct the RTqPCR, RNA was extracted from cells using an RNA isolation kit with DNAse treatment (Zymo). RNA was subjected to reverse transcription using RT Master Mix (Applied Biosystems). qPCR was performed with SYBR Green Master Mix (Applied Biosystems) using a QuantStudio3 (Applied Biosystems). Experiments were performed in biological triplicate and analyzed using the […].

[4] = Body weight of tumor-bearing nude mice; assay type: in vivo; conditions: 15 or 20 mg/kg twice per week for five weeks
Protocol: (§1) FIG. 5D represents OVCAR8 cells (5e5) grown in the flank of nude mice until a volume between 50-100 mm^3 were achieved. Mice were then randomized to receive either vehicle, 15mg/kg, or 20 mg/kg volasertib twice per week. Tumor volume was measured with calipers (FIG. 5D) and body weight was measured (FIG. 5E) throughout the study.
(§2) Lastly, we evaluated the efficacy of the PLK1 inhibitor, volasertib, on tumor growth in vivo. OVCAR8 cells (5e5) were injected into the flank of nude mice and tumors were allowed to develop until 50-100 mm^3. Mice then received either vehicle (PBS) or 15 or 20 mg/kg volasertib twice per week for five weeks. Body weight and tumor volume were measured twice per week.

ovarian cancer patients = conditions: cited from earlier work
[5] = system: MYC and HSF1 protein in OVCAR8 cells; test: Immunoblot time course of MYC and HSF1 protein after volasertib; assay type: cell-based; conditions: OVCAR8, volasertib 1 nM, 0 to 18 hours
Protocol: (§3) Considering PLK1 phosphorylation previously indicated affects the protein stability of MYC and HSF1, it was tested whether volasertib affects MYC or HSF1 protein levels. A time course study was performed where samples were treated with volasertib for time ranges of 0 to 18hours. […] Similarly, the effect of volasertib was tested on the activity of HSF1 using an HSE luciferase reporter.
Immunoblotting and Immunoprecipitation: Immunoblotting and co-immunoprecipitation was performed as we have previously described (Lu et al., bioRxiv 2020:2020.08.31.275909). Antibodies for immunoblotting and immunoprecipitation included MYC (CST), HSF1 (CST), β-actin (CST), GAPDH (CST), FLAG (Sigma), and p-HSF1 (S326) (Abcam).

[6] = system: OVCAR8 (MYC-HSF1 co-amplified) cells; test: Tumor spheroid growth, co-amplified cells; assay type: cell-based; conditions: OVCAR8, 7 days
Protocol: FIG. 5B and FIG. 5C represent OVCAR8 (MYC-HSF1 co-amplified) and CAOV3 (non-amplified) cells subjected to tumor spheroid growth in the presence or absence of volasertib at the indicated doses. Spheroids were quantified by manual counting. The impact volasertib on spheroid growth in the two different cell lines is shown photographically (FIG. 5B) and graphically (FIG. 5C).
Ovarian cancer cells (1000-2000) were seeded into 24-well ultra-low attachment plates (Corning) and grown in serum-free spheroid media as we previously described (Wang et al., Mol Cancer Ther 2021). Spheroids were grown in the presence or absence of volasertib for 7 days. Spheroids were quantified by manual counting.

[7] = system: MYC-HSF1 dual amplified cells (OVCAR8, OVCAR4, SNU119); test: Clonogenic growth assay; assay type: cell-based; conditions: 7 days, crystal violet
Protocol: FIG. 5A depicts bar graphs showing clonogenic growth observed for OVCAR8, OVCAR4 and SNU119 cell lines subjected to the indicated dose of volasertib (BI-6727). Control cells were subjected to 1% DMSO instead of volasertib. Colonies were grown for 7 days prior to staining with crystal violet and quantification was completed with FIJI software.
(§4) The effectiveness of volasertib on MYC-HSF1 dual amplified cancer cells was also analyzed in several cell growth models. […] Cell viability assays were performed with Cell Titer Blue (Promega) as we previously described (Carpenter et al. Oncotarget 2017;8:73947-63). Clonogenic growth assays were performed by seeding <1000 cells into 6-well plates and staining with crystal violet after 7 days of growth. Colonies were quantified using FIJI.

[8] = system: OVCAR8 cells in the flank of nude mice; test: OVCAR8 flank tumor growth in nude mice; assay type: in vivo; conditions: 15 or 20 mg/kg twice per week for five weeks
Protocol: as §1, §2

[9] = system: cell lines without dual amplification (OVSAHO, CAOV3, PEO1, OVCAR3); test: Volasertib IC50, cell viability, non-amplified cell lines; assay type: cell-based; conditions: average of OVSAHO, read-out: IC50 in non-amplified cells
Protocol: (§5) PLK1 is an active therapeutic target with several compounds targeting this kinase inPLK1 inhibitor that has shown promise as an effective cancer therapy in early phase clinical trials (Rudolph et al. Clin Cancer Res 2009; 15:3094-102;Pujade-Lauraine et al. J Clin Oncol 2016;34:706-13; Xie et al. Am J Cancer Res 2015;5:3548-59). […] To assess whether a PLK1 inhibitor has specificity for MYC-HSFIdual-amplified ovarian cancer cells, the IC50 for volasertib was assessed in cell lines with dual amplification (OVCAR8, SNU119, OVCAR4, and COV362) and in cell lines without dual amplification (OVSAHO, CAOV3, PEO1, OVCAR3).
as §4

[10] = system: cell lines with dual amplification (OVCAR8, SNU119, OVCAR4, and COV362); test: Volasertib IC50, cell viability, MYC-HSF1 dual amplified cell lines; assay type: cell-based
Protocol: as §5, §4

[11] = system: HSF1 activity in OVCAR8 cells; test: HSE luciferase reporter assay; assay type: cell-based; conditions: OVCAR8, volasertib 1 nM, increasing time of treatment
Protocol: FIG. 4E is a bar graph representing OVCAR8 cells subjected to HSE luciferase assay with treatment of volasertib (1 nM) for the indicated times.
as §3
Luciferase Reporter Assays: Luciferase reporter assays were performed as we previously described (Lu et al. bioRxiv 2020:2020.08.31.275909). The HSF1 activity reporter contains multiple heat shock element (HSE) motifs driving firefly luciferase. Experiments were performed with co-transfection of a constitutively active renilla reporter. Analysis was completed by dividing firefly activity by renilla activity.

[12] = single agent, ovarian cancer patients

Q: With Nc1ccccc1NC(=O)c1ccc(CNC(=O)OCc2cccnc2)cc1 [Entinostat] as the molecule, how does the “protein levels of MYC and HSF1” value [1] read?
A: Its value is “reduced protein levels of both MYC and HSF1”.

Q: What about the “Non Amp - AMP (POC) 10 uM” value ([2]; listed as Entinostat (MS-275, SNDX-275), 10 µM) of the same molecule?
A: Its value is 52.31 POC.

Q: What about the “Non Amp - AMP (POC) 10 uM” value ([2]; listed as MS-275 (entinostat), 10 µM) of the same molecule?
A: The value was 65.06 POC.

Q: What about the “levels of HSF1 and MYC target genes (mRNA)” value [3] of the same molecule?
A: Its value is “significantly reduced levels of HSF1 and MYC target genes”.

Q: For CC[C@@H]1C(=O)N(C)c2cnc(Nc3ccc(C(=O)N[C@H]4CC[C@H](N5CCN(CC6CC6)CC5)CC4)cc3OC)nc2N1C(C)C [volasertib], which body weight [4] is on record?
A: Its body weight is “no change in body weight”.

Q: And the “toxicity and safety for use in humans” value (ovarian cancer patients; early phase clinical trials)?
A: The value was “favorable toxicity and safety”.

Q: What about the “24-week disease control rate” value (ovarian cancer patients; [12]) of the same molecule?
A: Its value is 30%.

Q: What about the “patients with partial responses” value (ovarian cancer patients; [12]) of the same molecule?
A: The value was 13%.

Q: And the “patients with progression-free survival for more than one year” value (ovarian cancer patients; single agent, none in patients receiving cytotoxic chemotherapy)?
A: The value was 11%.

Q: What about the “MYC and HSF1 protein levels” value [5] of the same molecule?
A: Its value is “loss of MYC and HSF1 protein after 3hours of volasertib exposure”.

Q: What about the “spheroid growth, MYC-HSF1 dual amplified cells” value [6] of the same molecule?
A: The value was “inhibit spheroid growth”.

Q: What about the clonogenic growth [7] of the same molecule?
A: Its clonogenic growth is “strong inhibition of clonogenic growth”.

Q: And the “tumor growth in vivo” value [8]?
A: The value was “strongly regress tumor growth”.

Q: And the IC50 [9]?
A: The IC50 was 7.8 µM.

Q: What about the IC50 ([10]; average of OVCAR8, SNU119, OVCAR4, COV362, read-out: IC50 for volasertib in MYC-HSF1 dual amplified cells) of the same molecule?
A: Its IC50 is 0.033 µM.

Q: What about the “fold difference of IC50, non-amplified vs MYC-HSF1 dual amplified cells” value ([10]; enhanced efficacy in dual amplified ovarian cancer cells) of the same molecule?
A: Its value is > 200 fold and 200 fold.

Q: What about the “HSF1 activity (HSE luciferase reporter)” value [11] of the same molecule?
A: Its value is “increasing inhibition of HSF1 activity”.

Q: With O=C(O)CCNc1cc(N2CCc3ccccc3CC2)nc(-c2ccccn2)n1 [GSK-J1 (sodium salt)] as the molecule, how does the “Non Amp - AMP (POC) 10 uM” value [2] read?
A: Its value is 8.487 POC.

Q: With Cc1cc(/N=N/c2ccc(S(=O)(=O)Nc3ccccn3)cc2)c(N)cc1O [MS436] as the molecule, how does the “Non Amp - AMP (POC) 10 uM” value [2] read?
A: The value was 8.852 POC.

Q: With CN(C)Cc1c(C(=O)NCCOc2ccc(C(=O)NO)cc2)oc2ccccc12 [PCI 24781] as the molecule, how does the “Non Amp - AMP (POC) 10 uM” value ([2]; 10 µM) read?
A: Its value is 42.57 POC.

Q: What about the “Non Amp - AMP (POC) 10 uM” value ([2]; listed as PCI-24781 (CRA-024781), 10 µM) of the same molecule?
A: Its value is 28.7 POC.
